Active and inactive are the calls of the source. The calls are words filed in the database; no cut-off is given here.
How the values were obtained:
MCF/ADR [1] = assay: Cytocidal effect in human multidrug resistant MCF/ADR cells assessed as decrease in number of viable cells at 0.1 uM after 1 hr measured after 72 hrs in absence of drug by MTT colorimetric assay; type: functional, cell-based
MCF/WT [2] = assay: Cytostatic effect in human drug sensitive MCF/WT cells assessed as slight increase in number of viable cells at 30 nM after 6 days by MTT colorimetric assay; type: functional, cell-based
[3] = Cell cycle arrest in human drug-sensitive MCF/WT cells assessed as accumulation at sub G0/G1 phase at 0.3 uM after 24 hrs by propidium fluorescence flow cytometry; type: functional, cell-based
[4] = Cell cycle arrest in human drug-sensitive MCF/WT cells assessed as accumulation at G2/M phase at 0.3 uM after 24 hrs by propidium fluorescence flow cytometry; type: functional, cell-based
[5] = Cell cycle arrest in human drug-sensitive MCF/WT cells assessed as accumulation at G0/G1 phase at 0.3 uM after 48 hrs by propidium fluorescence flow cytometry; type: functional, cell-based
[6] = Cell cycle arrest in human drug-sensitive MCF/WT cells assessed as accumulation at G2/M phase at 0.3 uM after 48 hrs by propidium fluorescence flow cytometry; type: functional, cell-based
[7] = Cell cycle arrest in human multidrug resistant MCF/ADR cells assessed as accumulation at G2/M phase at 0.3 uM after 24 hrs by propidium fluorescence flow cytometry; type: functional, cell-based
[8] = Cell cycle arrest in human multidrug resistant MCF/ADR cells assessed as accumulation at G0/G1 phase at 0.3 uM after 48 hrs by propidium fluorescence flow cytometry; type: functional, cell-based
[9] = Cell cycle arrest in human multidrug resistant MCF/ADR cells assessed as accumulation at sub G0/G1 phase at 0.3 uM after 72 hrs by propidium fluorescence flow cytometry; type: functional, cell-based
[10] = Cell cycle arrest in human multidrug resistant MCF/ADR cells assessed as accumulation at G2/M phase at 0.3 uM after 72 hrs by propidium fluorescence flow cytometry; type: functional, cell-based
MCF/ADR [11] = assay: Induction of apoptosis in human multidrug resistant MCF/ADR cells assessed as annexin V binding to phosphatidylserine at 0.3 uM after 6 hrs; type: functional, cell-based
MCF/WT [12] = assay: Induction of apoptosis in human drug sensitive MCF/WT cells assessed as propidium iodide binding to phosphatidylserine at 0.3 uM after 6 hrs; type: functional, cell-based
MCF/ADR [13] = assay: Decrease in p53 accumulation in human multidrug resistant MCF/ADR cells at 0.3 uM after 72 hrs by immunoblot analysis; type: functional, cell-based
[14] = biological target: Transcription factor Jun (Homo sapiens) (UniProt P05412); assay: Reduction in induction of c-Jun expression in human multidrug resistant MCF/ADR cells at 0.3 uM after 48 hrs by immunoblot analysis in presence of caspase 9 inhibitor; type: cell-based
Chain of Transcription factor Jun (Homo sapiens) (P05412 whole entry): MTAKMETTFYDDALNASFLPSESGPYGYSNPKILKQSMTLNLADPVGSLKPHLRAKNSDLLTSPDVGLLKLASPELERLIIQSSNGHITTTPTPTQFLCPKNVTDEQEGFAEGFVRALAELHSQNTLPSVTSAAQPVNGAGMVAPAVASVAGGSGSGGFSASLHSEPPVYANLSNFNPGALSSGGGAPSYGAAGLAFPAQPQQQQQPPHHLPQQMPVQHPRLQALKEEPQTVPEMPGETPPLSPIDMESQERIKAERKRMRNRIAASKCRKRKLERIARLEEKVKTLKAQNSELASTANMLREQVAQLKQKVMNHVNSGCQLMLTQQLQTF

MCF/ADR [15] = assay: Induction of apoptosis in human multidrug resistant MCF/ADR cells assessed as accumulation of PARP at 0.3 uM after 48 hrs by immunoblot analysis; type: functional, cell-based
MDA-MB-468 = assay: Induction of apoptosis in human multidrug resistant MDA-MB-468 cells assessed as accumulation of PARP at 0.3 uM after 48 hrs by immunoblot analysis; type: functional, cell-based
MDA-MB-231 = assay: Induction of apoptosis in human multidrug resistant MDA-MB-231 cells assessed as accumulation of PARP at 0.3 uM after 48 hrs by immunoblot analysis; type: functional, cell-based
MCF/ADR [16] = assay: Inhibition of induction of apoptosis in human multidrug resistant MCF/ADR cells assessed as inhibition of cleavage of lamin A at 0.3 uM after 48 hrs by immunoblot analysis in presence of pan-specific inhibitor; type: functional, cell-based
MCF/ADR [17] = assay: Inhibition of induction of apoptosis in human multidrug resistant MCF/ADR cells assessed as inhibition of cleavage of PARP at 0.3 uM after 48 hrs by immunoblot analysis in presence of caspase 9-specific inhibitor; type: functional, cell-based
MCF/WT [18] = assay: Induction of JNK p46 isoform phosphorylation in human drug-sensitive MCF/WT cells at 0.3 uM after 48 hrs by immunoblot analysis; type: cell-based
[19] = biological target: Transcription factor Jun (Homo sapiens) (UniProt P05412); assay: Induction of c-Jun serine 73 phosphorylation in human multidrug resistant MCF/ADR cells at 0.3 uM; type: cell-based
[20] = biological target: Transcription factor Jun (Homo sapiens) (UniProt P05412); assay: Induction of c-Jun serine 63 phosphorylation in human multidrug resistant MCF/ADR cells at 0.3 uM; type: cell-based
[21] = biological target: Bcl-2-like protein 1 (Homo sapiens) (UniProt Q07817); assay: Inhibition of induction of Bcl-x/s phosphorylation in human multidrug resistant MCF/ADR cells at 0.3 uM after 48 hrs in presence of SP600125; type: functional, cell-based
Chain of Bcl-2-like protein 1 (Homo sapiens) (Q07817 whole entry): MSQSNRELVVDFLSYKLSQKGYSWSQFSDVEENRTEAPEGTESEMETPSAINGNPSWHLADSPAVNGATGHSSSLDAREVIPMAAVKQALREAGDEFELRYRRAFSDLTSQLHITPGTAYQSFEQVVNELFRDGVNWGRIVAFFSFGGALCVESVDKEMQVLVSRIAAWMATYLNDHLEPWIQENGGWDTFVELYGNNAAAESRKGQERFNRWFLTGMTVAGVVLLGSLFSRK

MCF/ADR [22] = assay: Blockade of apoptosis induction in human multidrug resistant MCF/ADR cells at 0.3 uM after 48 hrs in presence of rottlerin; type: functional, cell-based
[23] = biological target: T1, c-Jun N-terminal kinase, JNK (Homo sapiens) (UniProt P45983+P53779+P45984); assay: Induction of JNK activity in human multidrug resistant MCF/ADR cells assessed as mitochondrial localization of phosphorylated JNK with Bcl-x/l; type: cell-based
[24] = biological target: T1, c-Jun N-terminal kinase, JNK (Homo sapiens); assay: Effect on mitochondrial localization of phosphorylated JNK with Bcl-x/l in human multidrug resistant MCF/ADR cells assessed as enhanced JNK activity by Mitotracker red staining; type: cell-based
MCF/ADR [25] = assay: Reduction in induction of apoptosis in human multidrug resistant MCF/ADR cells assessed as suppression of caspase 9 activation at 0.3 uM after 48 hrs by immunoblot analysis in presence of rottlerin; type: functional, cell-based
MCF/ADR [26] = assay: Reduction in induction of apoptosis in human multidrug resistant MCF/ADR cells assessed as suppression of lamin A cleavage at 0.3 uM after 48 hrs by immunoblot analysis in presence of rottlerin; type: functional, cell-based
Rhodopsin kinase GRK1 = biological target: T2, Rhodopsin kinase GRK1 (Homo sapiens, UniProt Q15835); assay: Inhibition of rhodopsin kinase
T2 sequence (Q15835 whole entry): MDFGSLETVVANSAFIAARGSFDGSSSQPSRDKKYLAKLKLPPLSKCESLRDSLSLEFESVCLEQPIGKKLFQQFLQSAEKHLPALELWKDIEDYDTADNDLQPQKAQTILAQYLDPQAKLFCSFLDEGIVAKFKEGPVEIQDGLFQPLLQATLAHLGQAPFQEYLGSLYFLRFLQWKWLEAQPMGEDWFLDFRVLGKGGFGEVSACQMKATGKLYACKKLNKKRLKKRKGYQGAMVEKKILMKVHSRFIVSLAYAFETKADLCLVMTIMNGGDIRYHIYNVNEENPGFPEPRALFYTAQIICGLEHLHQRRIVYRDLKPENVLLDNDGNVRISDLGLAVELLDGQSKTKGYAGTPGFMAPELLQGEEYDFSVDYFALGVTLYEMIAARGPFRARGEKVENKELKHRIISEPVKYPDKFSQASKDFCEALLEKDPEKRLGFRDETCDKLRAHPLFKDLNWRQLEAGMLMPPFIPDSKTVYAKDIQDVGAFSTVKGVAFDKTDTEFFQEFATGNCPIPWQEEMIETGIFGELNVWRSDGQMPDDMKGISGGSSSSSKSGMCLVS

[27] = Inhibition of nuclear protein kinase 2
MCF = assay: Induction of c-Jun expression in human drug-sensitive MCF cells at 0.3 uM; type: functional, cell-based
[28] = biological target: Transcription factor Jun (Homo sapiens) (UniProt P05412); assay: Induction of c-Jun phosphorylation in human drug-sensitive MCF/WT cells at 0.3 uM; type: cell-based

## NC(=O)c1cn([C@@H]2O[C@H](CO)[C@@H](O)[C@H]2O)c2ncnc(N)c12 [SANGIVAMYCIN]
MCF/ADR [1]
  Activity: Active
MCF/WT [2]
  Activity: Active
[3]
  Activity: 1%
[4]
  Activity: 28%
[5]
  Activity: 61%
[6]
  Activity: 27%
[7]
  Activity: 33%
[8]
  Activity: 20%
[9]
  Activity: 50%
[10]
  Activity: 8%
MCF/ADR [11]
  Activity: Active
MCF/WT [12]
  Activity: inactive
MCF/ADR [13]
  Activity: Active
[14]
  Activity: inactive
MCF/ADR [15]
  Activity: Active
MDA-MB-468
  Activity: Active
MDA-MB-231
  Activity: Active
MCF/ADR [16]
  Activity: Active
MCF/ADR [17]
  Activity: Active
MCF/WT [18]
  Activity: inactive
[19]
  Activity: Active
[20]
  Activity: Active
[21]
  Activity: Active
MCF/ADR [22]
  Activity: Active
[23]
  Activity: Active
[24]
  Activity: Active
MCF/ADR [25]
  Activity: Active
MCF/ADR [26]
  Activity: Active
Rhodopsin kinase GRK1
  Ki: 0.18 µM
[27]
  Ki: 100 µM
MCF
  Activity: Active
[28]
  Activity: inactive

— ChEMBL document CHEMBL1156449, “The nucleoside analog sangivamycin induces apoptotic cell death in breast carcinoma MCF7/adriamycin-resistant cells via protein kinase Cdelta and JNK activation” (J Biol Chem, 2007)
